Measured values from ChEMBL document CHEMBL4673368, “Ophiobolin Sesterterpenoids and Farnesylated Phthalide Derivatives from the Deep Sea Cold-Seep-Derived Fungus Aspergillus insuetus SD-512” (2020).

Key:
Format in all cases: functional
[1] = tested on: Edwardsiella tarda; experiment: Antibacterial activity against Edwardsiella tarda QDIO-8 assessed as reduction in microbial growth after 24 hrs by serial dilution method
[2] = tested on: Pseudomonas aeruginosa; experiment: Antibacterial activity against Pseudomonas aeruginosa QDIO-2 assessed as reduction in microbial growth after 24 hrs by serial dilution method
[3] = tested on: Vibrio alginolyticus; experiment: Antibacterial activity against Vibrio alginolyticus QDIO-7 assessed as reduction in microbial growth after 24 hrs by serial dilution method
[4] = tested on: Aeromonas hydrophila; experiment: Antibacterial activity against Aeromonas hydrophila QDIO-10 assessed as reduction in microbial growth after 24 hrs by serial dilution method
[5] = tested on: Vibrio parahaemolyticus; experiment: Antibacterial activity against Vibrio parahaemolyticus QDIO-5 assessed as reduction in microbial growth after 24 hrs by serial dilution method
[6] = tested on: Escherichia coli; experiment: Antibacterial activity against Escherichia coli QDIO-1 assessed as reduction in microbial growth after 24 hrs by serial dilution method
[7] = tested on: Vibrio anguillarum; experiment: Antibacterial activity against Vibrio anguillarum QDIO-9 assessed as reduction in microbial growth after 24 hrs by serial dilution method
[8] = tested on: Vibrio vulnificus; experiment: Antibacterial activity against Vibrio vulnificus QDIO-4 assessed as reduction in microbial growth after 24 hrs by serial dilution method

MIC [1] [µg/mL]	MIC [2] [µg/mL]	MIC [3] [µg/mL]	MIC [4] [µg/mL]	MIC [6] [µg/mL]	MIC [7] [µg/mL]	MIC [8] [µg/mL]	Compound	MIC [5] [µg/mL]
8	8	4	8	16	32	8	CC(C)=C/C=C\[C@H](C)[C@H]1CC[C@]2(C)C[C@@H]3C(C)=CC(=O)[C@H]3/C(C=O)=C\C[C@@H]12	8
8	8	4	8	16	32	8	CC(C)=C/C=C\[C@H](C)[C@H]1CC[C@]2(C)C[C@@H]3C(C)=CC(=O)[C@H]3/C(CO)=C\C[C@@H]12	8
> 32	> 32	> 32	> 32	> 32	> 32	> 32	CC(C)=C/C=C\[C@H](C)[C@H]1CC[C@]2(C)C[C@H]3[C@@H]4/C(=C\C[C@@H]12)CO[C@]4(O)C[C@@]3(C)O	> 32
> 32	> 32	> 32	> 32	> 32	> 32	> 32	CC(C)=CCC[C@H](C)[C@H]1CC[C@]2(C)C[C@H]3[C@@H]4/C(=C\C[C@@H]12)CO[C@]4(O)C[C@@]3(C)O	> 32
4	8	4	8	32	> 32	4	COc1cc2c(c(O)c1OC/C=C(\C)CC/C=C(\C)CCCC(C)(C)OC(C)=O)COC2=O	8
> 32	> 32	> 32	> 32	> 32	> 32	> 32	CO[C@]12C[C@@](C)(O)[C@H]3C[C@@]4(C)CC[C@H]([C@@H](C)/C=C\C=C(C)C)[C@@H]4C/C=C(/CO1)[C@@]32O	> 32
8	16	4	8	32	> 32	4	COc1cc2c(c(O)c1OC/C=C(\C)CC/C=C(\C)CCC=C(C)C)COC2=O	16
> 32	> 32	> 32	> 32	> 32	> 32	> 32	CC(C)=CCC[C@H](C)[C@H]1CC[C@]2(C)C[C@@H]3C(C)=CC(=O)[C@H]3/C(CO)=C\C[C@@H]12	> 32
> 32	> 32	> 32	> 32	> 32	> 32	> 32	CC(C)=CCC[C@H](C)[C@H]1CC[C@]2(C)C[C@@H]3C(C)=CC(=O)[C@H]3/C(C=O)=C\C[C@@H]12	> 32
8	16	8	16	32	> 32	4	COc1cc2c(c(O)c1OC/C=C(\C)CC/C=C(\C)CCCC(C)(C)O)COC2=O	16
4	8	4	4	4	32	8	CC(C)=CCC[C@H](C)[C@H]1CC[C@]2(C)C[C@H]3[C@H]4/C(=C\C[C@@H]12)CO[C@@]4(O)C[C@@]3(C)O	4

Compound	MIC [1] [µg/mL]	MIC [2] [µg/mL]	MIC [3] [µg/mL]	MIC [4] [µg/mL]	MIC [6] [µg/mL]	MIC [7] [µg/mL]	MIC [8] [µg/mL]	MIC [5] [µg/mL]
O=C(N[C@H](CO)[C@H](O)c1ccc([N+](=O)[O-])cc1)C(Cl)Cl [CHLORAMPHENICOL]	0.5	1	0.5	1	1	0.5	0.5	1
